Test results taken from publication PMC8448819, “The Arabidopsis MIK2 receptor elicits immunity by sensing a conserved signature from phytocytokines and microbes” (Nature Communications, 2021).
Values joined by “and” are separate entries in the source; they are usually repeats but may differ in a detail not shown here. Equal entries are not always repeated. “Also recorded” adds a separate entry of the source. Where two headings read alike, the source gives them in different places. No end group written: not given here.

Tests used:
Format in all cases: in vivo, Arabidopsis thaliana
[1] = system: mik2-1 and mik2-2 mutant seedlings; settings: for Root length (Fig. 3e): individual values, one per line; for root growth inhibition in mik2: mik2-1 and mik2-2, 10-day-old seedlings, 1 µM peptide
[2] = system: Arabidopsis WT seedlings; experiment: ROS assay (luminol), WT seedlings; settings: WT seedlings
Protocol: ROS burst was determined by a luminol-based assay. […] Then, ddH2O was replaced by 200 µL of reaction solution containing 50 µM of luminol, and 10 µg/mL of horseradish peroxidase (Sigma-Aldrich) supplemented with or without 100 nM or 1 μM peptide. Luminescence was measured immediately after adding the solution with a luminometer (Glomax 20/20n, Promega) with a one-second interval for 15 min. The total values of ROS production were indicated as means of the relative light units (RLUs).

[3] = system: Arabidopsis WT (Col-0) seedlings; settings: in vivo
[4] = system: WRKY30, WRKY33 and CYP81F2 expression, mik2 seedlings; experiment: RT-qPCR of defense genes, mik2 mutants
[5] = system: WRKY30, WRKY33 and CYP81F2 expression, WT seedlings; experiment: RT-qPCR of defense genes, WT
[6] = system: MYB51 promoter, pMYB51::GUS seedling roots; experiment: Histochemical GUS staining, pMYB51::GUS; settings: pMYB51::GUS seedlings, 1 µM, 3 h
Source text: Stained samples were fixed with a 3:1 ethanol:acetic acid solution overnight and cleared by lactic acid and photographed with the Olympus SZX10 stereoscopic microscope equipped with DP27 camera.

[7] = system: Arabidopsis WT seedling roots; experiment: Microscopy of root browning and root meristems, WT
[8] = system: MPK3, MPK4 and MPK6 phosphorylation, WT seedlings; experiment: MAPK assay (α-pERK1/2 immunoblot), WT; settings: Supplementary Fig. 3i
Protocol: Ten-day-old seedlings grown vertically on ½MS plates were transferred to ddH2O overnight for recovery. Then, ddH2O was replaced by 100 nM peptides for the indicated time.

[9] = system: p35S::Aequorin seedlings; settings: Ca^2+ and ROS bursts, 100 nM

| Sequence | Root length (Fig. 3e) ([1]; mik2-1) | Root length (Fig. 3e) ([1]; mik2-2) | root growth inhibition [3] | MYB51 promoter activity in roots [6] | further results |
| --- | --- | --- | --- | --- | --- |
| GAPIVFTPPSSSCGGSP [STMP4, STMP4 peptide, which has an amino acid deletion in the conserved SxS motif] | 26.035 and 22.177 and 25.221 and 21.231 and 23.232 and 25.379 and 25.816 and 25.603 and 24.49 | 27.261 and 26.645 and 24.381 and 25.81 and 23.327 and 24.383 and 26.715 and 24.68 and 25.536 and 24.727 | – | – | – |
| KIAVGGSDSVRAHSK [SCOOP23, synthesized SCOOP peptide corresponding to the SxS motif] | 23.435 and 26.217 and 25.329 and 21.432 and 22.769 and 26.981 and 22.432 and 24.659 and 23.767 and 23.209 | 23.086 and 28.297 and 24.517 and 23.273 and 27.734 and 25.385 and 23.518 and 22.015 and 26.958 and 26.866 and 23.718 | inhibited root growth to various degrees | – | ROS production, total luminescence (Fig. 2h) ([2]; repeat 1): 2180098; ROS production, total luminescence (Fig. 2h) ([2]; repeat 2): 1251437; ROS production, total luminescence (Fig. 2h) ([2]; repeat 3): 1771537 |
| KIGASGSNSGRAPSC [SCOOP20, synthesized SCOOP peptide corresponding to the SxS motif] | 24.471 and 25.145 and 23.922 and 25.251 and 22.928 and 25.223 and 20.452 and 22.037 and 23.256 and 20.819 | 26.727 and 24.181 and 24.271 and 27.062 and 26.494 and 25.973 and 25.806 and 29.152 and 24.029 and 26.34 and 22.997 | inhibited root growth to various degrees | – | ROS production, total luminescence (Fig. 2h) ([2]; repeat 1): 5262077; ROS production, total luminescence (Fig. 2h) ([2]; repeat 2): 3306520; ROS production, total luminescence (Fig. 2h) ([2]; repeat 3): 2873103 |
| MGSGASGPVRSSQSSQAGGR [SCOOP12] | – | – | – | – | CYP81F2 expression (Fig. 3i) ([4]; mik2-1, repeat 1): 5.42; CYP81F2 expression (Fig. 3i) ([4]; mik2-1, repeat 2): 5.95; CYP81F2 expression (Fig. 3i) ([4]; mik2-1, repeat 3): 2.79; CYP81F2 expression (Fig. 3i) ([4]; mik2-1, repeat 4): 3.39; CYP81F2 expression (Fig. 3i) ([4]; mik2-2, repeat 1): 6.08; CYP81F2 expression (Fig. 3i) ([4]; mik2-2, repeat 2): 9.84; CYP81F2 expression (Fig. 3i) ([4]; mik2-2, repeat 3): 9.95; CYP81F2 expression (Fig. 3i) ([4]; mik2-2, repeat 4): 12.98; WRKY30, WRKY33 and CYP81F2 expression ([4]; mik2 mutants, 1 µM, 1 h, RT-qPCR): abolished in mik2 mutants; WRKY30, WRKY33 and CYP81F2 expression ([5]; 1 µM, 1 h, RT-qPCR): upregulation; CYP81F2 expression (Fig. 3i) ([5]; repeat 1): 29.17; CYP81F2 expression (Fig. 3i) ([5]; repeat 2): 38.18; CYP81F2 expression (Fig. 3i) ([5]; repeat 3): 74.97; CYP81F2 expression (Fig. 3i) ([5]; repeat 4): 101.98 |
| MISEARPSKSKKGGGR [SCOOP6B, synthesized SCOOP peptide corresponding to the SxS motif] | 26.764 and 22.587 and 22.234 and 24.018 and 23.886 and 24.716 and 22.804 and 23.685 and 23.478 and 25.619 | 24.299 and 28.027 and 25.995 and 25.387 and 24.265 and 26.073 and 27.219 and 21.779 and 25.474 and 24.644 | inhibited root growth to various degrees | – | – |
| PPRGPGGSGSGHGGGR [AtSCOOPL, SCOOPL from Acidovorax temperans] | – | – | inactivity | inactivity | – |
| PPRGSGGPGGSGHGGGG [AaSCOOPL, SCOOPL from Acidovorax avenae] | – | – | inactivity | inactivity | – |
| PPRGSGGSGSGHGGGR [VeSCOOPL, SCOOPL from Verminephrobacter eiseniae] | – | – | induced growth inhibition | MYB51 promoter activation in roots | root growth inhibition in mik2 [1]: blocked in mik2-1 |
| PPRGSGGSSSGHGGGR [CuSCOOPL, SCOOPL from a strain of Curvibacter sp] | – | – | induced growth inhibition | MYB51 promoter activation in roots | root growth inhibition in mik2 [1]: blocked in mik2-1 |
| RGIVKPPIASFHSASPKDKGP [SCOOP4, synthesized SCOOP peptide corresponding to the SxS motif] | 22.155 and 26.016 and 23.373 and 23.51 and 24.985 and 25.73 and 26.362 and 20.719 and 23.733 and 21.154 | 26.627 and 26.926 and 29.205 and 26.909 and 23.654 and 24.824 and 23.191 and 25.56 and 22.857 and 22.903 and 27.736 | inhibited root growth to various degrees | – | – |
| RPPTPRVAVHSNSTKGKGP [SCOOP15B, synthesized SCOOP peptide corresponding to the SxS motif] | 22.469 and 26.152 and 25.889 and 25.356 and 27.954 and 26.487 and 24.47 and 23.738 | 21.779 and 26.908 and 23.024 and 23.497 and 28.191 and 26.08 and 24.094 and 28.257 and 26.467 and 23.539 and 26.537 | inhibited root growth to various degrees | – | – |
| RSMAPPIFVPPSTSHKGQGP [SCOOP14, synthesized SCOOP peptide corresponding to the SxS motif] | 24.089 and 21.232 and 24.336 and 25.505 and 25.175 and 27.845 and 26.169 and 23.827 and 21.884 and 25.844 | 25.38 and 24.419 and 26.016 and 27.911 and 26.615 and 21.291 and 24.947 and 21.905 and 24.43 and 24.226 | inhibited root growth to various degrees; also recorded: potent in inhibiting root growth | induced the promoter activities of MYB51 | root browning ([7]; WT seedlings, prolonged treatment): led to brown roots; root meristem distortion ([7]; WT, 5-day-old seedlings, 1 µM, 48 h, PI staining): distorted root meristems; MAPK activation in shoots and roots [8]: triggered the MAPK activation in both shoots and roots; ROS production, total luminescence (Fig. 2h) ([2]; repeat 1): 719851; ROS production, total luminescence (Fig. 2h) ([2]; repeat 2): 1351126; ROS production, total luminescence (Fig. 2h) ([2]; repeat 3): 841586; ROS production, SCOOP13 and 14 relative to other SCOOPs, and Ca^2+ bursts [9]: relatively weak activities for Ca^2+ and ROS bursts |
| SNIDFEGSISGQAGGG [SCOOP8, synthesized SCOOP peptide corresponding to the SxS motif] | 25.253 and 25.162 and 23.049 and 22.582 and 26.011 and 22.381 and 28.631 and 26.512 and 24.502 and 27.853 | 23.975 and 28.387 and 29.648 and 23.838 and 24.549 and 26.123 and 23.426 and 24.732 and 24.595 and 29.804 and 26.398 | inhibited root growth to various degrees | – | – |
